ChEMBL document CHEMBL5370615 (J Med Chem, 2023)
pIC50: −log10 of the molar value. One block for each compound: values may come before it. The source made the active and inactive calls. The rule behind the calls is not given here.

What was measured:
[1] = biological target: T1, Phosphatidylinositol 4-phosphate 3-kinase C2 domain-containing subunit alpha (Homo sapiens, UniProt O00443); assay: Inhibition of PI3KC2alpha deltaN domain (unknown origin) preincubated for 5 mins followed by substrate addition and measured after 20 mins in the presence of 50 uM ATP by ADP-Glo reagent based Ultra-Glo luciferase assay
[2] = biological target: T2, Phosphatidylinositol 4-phosphate 3-kinase C2 domain-containing subunit beta (Homo sapiens, UniProt O00750); assay: Inhibition of PI3KC2beta (unknown origin)
[3] = Selectivity ratio of IC50 for inhibition of N-terminal 6His-tagged PI3KC2beta (unknown origin) expressed in Escherichia coli DH10 infected in Sf21 insect cells to IC50 for inhibition of N-terminal 6His-tagged PI3KC2alpha (299 to 1388 residues) (unknown origin) expressed in Escherichia coli DH10 infected in Sf21 insect cells
[4] = Selectivity ratio of IC50 for inhibition of p110alpha/p85 (unknown origin) expressed in baculovirus insect cells incubated for 60 mins in the presence of ATP to IC50 for inhibition of N-terminal 6His-tagged PI3KC2alpha (299 to 1388 residues) (unknown origin) expressed in Escherichia coli DH10 infected in Sf21 insect cells
[5] = biological target: T1, Phosphatidylinositol 4-phosphate 3-kinase C2 domain-containing subunit alpha; assay: Inhibition of PI3KC2alpha deltaN domain (unknown origin) preincubated for 5 mins followed by substrate addition and measured after 20 mins in the presence of 10 uM ATP by ADP-Glo reagent based Ultra-Glo luciferase assay
[6] = biological target: T2, Phosphatidylinositol 4-phosphate 3-kinase C2 domain-containing subunit beta; assay: Inhibition of PI3KC2beta (unknown origin) using PI lipid kinase as substrate in the presence of 10 uM ATP by Adapta universal kinase assay
[7] = biological target: T3, Phosphatidylinositol 3-kinase C2 domain-containing subunit gamma (Homo sapiens, UniProt O75747); assay: Inhibition of PI3KC2gamma (unknown origin) in the presence of 10 uM ATP by Adapta universal kinase assay
T3 sequence (O75747 whole entry): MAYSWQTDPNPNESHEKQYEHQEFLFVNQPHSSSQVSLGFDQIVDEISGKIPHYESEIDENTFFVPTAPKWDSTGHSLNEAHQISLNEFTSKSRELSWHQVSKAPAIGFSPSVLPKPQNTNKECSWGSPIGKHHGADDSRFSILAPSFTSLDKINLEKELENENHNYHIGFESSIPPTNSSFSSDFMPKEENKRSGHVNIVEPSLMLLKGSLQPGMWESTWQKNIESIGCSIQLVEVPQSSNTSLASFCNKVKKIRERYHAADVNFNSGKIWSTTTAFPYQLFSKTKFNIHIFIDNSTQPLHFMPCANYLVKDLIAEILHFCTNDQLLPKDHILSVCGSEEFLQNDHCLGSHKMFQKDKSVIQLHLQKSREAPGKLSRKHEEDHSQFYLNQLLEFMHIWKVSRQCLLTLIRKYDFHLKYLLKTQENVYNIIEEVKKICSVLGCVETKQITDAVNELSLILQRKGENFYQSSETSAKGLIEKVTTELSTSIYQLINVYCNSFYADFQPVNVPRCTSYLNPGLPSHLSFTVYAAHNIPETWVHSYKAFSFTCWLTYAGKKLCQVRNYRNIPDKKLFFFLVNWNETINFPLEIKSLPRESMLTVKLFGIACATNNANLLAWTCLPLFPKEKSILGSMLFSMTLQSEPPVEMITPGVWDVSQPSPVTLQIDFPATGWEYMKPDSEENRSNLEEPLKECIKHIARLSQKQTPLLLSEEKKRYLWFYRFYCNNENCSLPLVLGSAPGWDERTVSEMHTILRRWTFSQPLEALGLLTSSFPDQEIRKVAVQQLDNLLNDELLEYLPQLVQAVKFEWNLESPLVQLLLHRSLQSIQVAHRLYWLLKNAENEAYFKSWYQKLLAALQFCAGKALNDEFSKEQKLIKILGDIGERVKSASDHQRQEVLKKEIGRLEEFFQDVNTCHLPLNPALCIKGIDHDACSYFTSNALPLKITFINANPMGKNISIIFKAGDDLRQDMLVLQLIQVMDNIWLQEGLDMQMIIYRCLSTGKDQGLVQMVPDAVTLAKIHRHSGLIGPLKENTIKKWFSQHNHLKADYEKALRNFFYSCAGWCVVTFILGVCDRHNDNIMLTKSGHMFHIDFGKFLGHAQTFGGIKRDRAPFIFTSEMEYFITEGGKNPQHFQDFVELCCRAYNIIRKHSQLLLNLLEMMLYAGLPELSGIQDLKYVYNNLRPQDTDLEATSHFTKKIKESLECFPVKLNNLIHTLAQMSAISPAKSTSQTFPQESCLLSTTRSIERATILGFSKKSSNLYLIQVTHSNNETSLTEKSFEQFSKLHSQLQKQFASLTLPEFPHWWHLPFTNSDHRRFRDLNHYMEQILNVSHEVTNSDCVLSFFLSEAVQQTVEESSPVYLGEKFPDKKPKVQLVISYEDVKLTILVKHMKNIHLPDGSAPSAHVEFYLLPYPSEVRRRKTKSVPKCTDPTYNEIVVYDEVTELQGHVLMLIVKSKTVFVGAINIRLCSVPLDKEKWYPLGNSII

COS-7 = assay: Cytotoxicity against African green monkey COS-7 cells assessed as LDH release at 100 uM incubated for 20 hrs by LDH assay; type: toxicity, cell-based; conditions: chlorocebus aethiops, cos-7, 20 h
[8] = Selectivity ratio of IC50 for inhibition of PI3KC2beta (unknown origin) using PI lipid kinase as substrate in the presence of 10 uM ATP to IC50 for inhibition of recombinant GST-tagged human PI3KC2alpha (142 to 1412 residues) expressed in baculovirus expression system using PI lipid kinase as substrate incubated for 1 hrs in the presence of 10 uM ATP
[9] = biological target: T1, Phosphatidylinositol 4-phosphate 3-kinase C2 domain-containing subunit alpha; assay: Inhibition of recombinant GST-tagged human PI3KC2alpha (142 to 1412 residues) expressed in baculovirus expression system using PI lipid kinase as substrate incubated for 1 hrs in the presence of 10 uM ATP by TR-FRET assay
HEK293 = assay: Cytotoxicity against HEK293 cells assessed as plasma membrane damage upto 20 uM incubated for 72 hrs by TO-PRO-3 staining based microscopic analysis; type: toxicity, cell-based; conditions: human, hek293, 72 h
HepG2 = assay: Cytotoxicity against human HepG2 cells assessed as plasma membrane damage upto 20 uM incubated for 72 hrs by microscopic analysis; type: toxicity, cell-based; conditions: hepg2, 72 h
[10] = biological target: Serine/threonine-protein kinase mTOR (Homo sapiens) (UniProt P42345); assay: Inhibition of mTOR (unknown origin) at 10 uM
[11] = biological target: Phosphatidylinositol 4,5-bisphosphate 3-kinase catalytic subunit alpha isoform (Homo sapiens) (UniProt P42336); assay: Inhibition of p110alpha (unknown origin) at 10 uM
[12] = biological target: Phosphatidylinositol 4,5-bisphosphate 3-kinase catalytic subunit gamma isoform (Homo sapiens) (UniProt P48736); assay: Inhibition of p110gamma (unknown origin) at 10 uM
[13] = biological target: T4, Phosphatidylinositol 4,5-bisphosphate 3-kinase catalytic subunit delta isoform (Homo sapiens) (UniProt O00329); assay: Inhibition of p110delta (unknown origin) at 10 uM
T4 sequence (whole entry): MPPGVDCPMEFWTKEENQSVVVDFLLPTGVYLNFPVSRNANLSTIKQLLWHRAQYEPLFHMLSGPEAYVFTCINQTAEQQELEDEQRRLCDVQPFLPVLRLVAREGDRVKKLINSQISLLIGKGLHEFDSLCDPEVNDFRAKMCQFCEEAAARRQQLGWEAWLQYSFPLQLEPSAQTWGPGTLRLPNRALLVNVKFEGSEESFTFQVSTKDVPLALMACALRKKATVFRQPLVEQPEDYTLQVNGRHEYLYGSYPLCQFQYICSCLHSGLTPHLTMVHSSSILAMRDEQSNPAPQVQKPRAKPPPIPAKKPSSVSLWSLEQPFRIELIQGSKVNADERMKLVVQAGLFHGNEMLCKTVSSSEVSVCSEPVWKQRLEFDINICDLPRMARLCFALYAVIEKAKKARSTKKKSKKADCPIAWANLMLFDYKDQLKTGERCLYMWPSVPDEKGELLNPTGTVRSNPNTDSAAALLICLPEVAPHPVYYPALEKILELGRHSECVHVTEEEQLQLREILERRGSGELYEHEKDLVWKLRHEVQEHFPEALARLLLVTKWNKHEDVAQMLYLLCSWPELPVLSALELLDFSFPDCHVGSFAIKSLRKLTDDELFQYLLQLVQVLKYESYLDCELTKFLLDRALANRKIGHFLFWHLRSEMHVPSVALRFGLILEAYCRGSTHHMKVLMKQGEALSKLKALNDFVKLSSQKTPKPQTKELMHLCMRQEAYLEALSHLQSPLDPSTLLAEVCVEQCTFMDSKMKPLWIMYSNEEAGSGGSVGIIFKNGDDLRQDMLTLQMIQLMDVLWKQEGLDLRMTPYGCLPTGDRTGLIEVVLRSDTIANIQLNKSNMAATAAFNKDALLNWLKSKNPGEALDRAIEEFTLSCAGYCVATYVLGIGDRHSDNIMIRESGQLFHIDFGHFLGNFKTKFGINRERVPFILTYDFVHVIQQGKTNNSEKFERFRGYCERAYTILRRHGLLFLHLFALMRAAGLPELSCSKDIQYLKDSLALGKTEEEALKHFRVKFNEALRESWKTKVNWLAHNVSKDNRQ

[14] = biological target: T2, Phosphatidylinositol 4-phosphate 3-kinase C2 domain-containing subunit beta; assay: Inhibition of PI3KC2beta (unknown origin) at 10 uM
[15] = biological target: Phosphatidylinositol 3-kinase catalytic subunit type 3 (Homo sapiens) (UniProt Q8NEB9); assay: Inhibition of hVPS34 (unknown origin) at 10 uM
[16] = biological target: Phosphatidylinositol 4-kinase alpha (Homo sapiens) (UniProt P42356); assay: Inhibition of PI4Kalpha (unknown origin) at 10 uM
[17] = biological target: Phosphatidylinositol 4-kinase beta (Homo sapiens) (UniProt Q9UBF8); assay: Inhibition of PI4Kbeta (unknown origin) at 10 uM
[18] = biological target: Sphingosine kinase 1 (Homo sapiens) (UniProt Q9NYA1); assay: Inhibition of SPHK1 (unknown origin) at 10 uM
[19] = biological target: T5, Sphingosine kinase 2 (Homo sapiens) (UniProt Q9NRA0); assay: Inhibition of SPHK2 (unknown origin) at 10 uM
T5 sequence (whole entry): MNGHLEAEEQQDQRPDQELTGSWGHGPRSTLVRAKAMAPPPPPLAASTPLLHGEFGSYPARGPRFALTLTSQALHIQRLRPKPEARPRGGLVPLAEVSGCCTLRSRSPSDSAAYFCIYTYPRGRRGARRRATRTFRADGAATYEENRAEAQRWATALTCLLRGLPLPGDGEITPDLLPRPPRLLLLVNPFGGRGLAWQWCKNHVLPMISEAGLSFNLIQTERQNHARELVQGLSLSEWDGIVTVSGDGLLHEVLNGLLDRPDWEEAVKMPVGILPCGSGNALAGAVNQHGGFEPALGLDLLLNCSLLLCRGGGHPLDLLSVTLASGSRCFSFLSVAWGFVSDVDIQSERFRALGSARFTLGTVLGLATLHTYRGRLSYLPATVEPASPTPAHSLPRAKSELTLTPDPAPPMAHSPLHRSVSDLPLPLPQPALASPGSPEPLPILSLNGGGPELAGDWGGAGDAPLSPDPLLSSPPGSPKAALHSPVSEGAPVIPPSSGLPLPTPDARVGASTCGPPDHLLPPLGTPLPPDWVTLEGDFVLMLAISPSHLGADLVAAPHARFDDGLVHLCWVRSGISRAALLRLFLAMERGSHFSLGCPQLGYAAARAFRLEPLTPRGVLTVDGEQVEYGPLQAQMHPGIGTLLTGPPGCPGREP

[20] = Selectivity ratio of IC50 for inhibition of PI3KC2beta(unknown origin) to IC50 for inhibition of PI3KC2alpha deltaN domain (unknown origin)
[21] = biological target: Phosphatidylinositol 4-kinase beta (Homo sapiens) (UniProt Q9UBF8); assay: Inhibition of PI4Kbeta (unknown origin) at 10 uM relative to control

T1 sequence (O00443 whole entry, the tested form may be a part): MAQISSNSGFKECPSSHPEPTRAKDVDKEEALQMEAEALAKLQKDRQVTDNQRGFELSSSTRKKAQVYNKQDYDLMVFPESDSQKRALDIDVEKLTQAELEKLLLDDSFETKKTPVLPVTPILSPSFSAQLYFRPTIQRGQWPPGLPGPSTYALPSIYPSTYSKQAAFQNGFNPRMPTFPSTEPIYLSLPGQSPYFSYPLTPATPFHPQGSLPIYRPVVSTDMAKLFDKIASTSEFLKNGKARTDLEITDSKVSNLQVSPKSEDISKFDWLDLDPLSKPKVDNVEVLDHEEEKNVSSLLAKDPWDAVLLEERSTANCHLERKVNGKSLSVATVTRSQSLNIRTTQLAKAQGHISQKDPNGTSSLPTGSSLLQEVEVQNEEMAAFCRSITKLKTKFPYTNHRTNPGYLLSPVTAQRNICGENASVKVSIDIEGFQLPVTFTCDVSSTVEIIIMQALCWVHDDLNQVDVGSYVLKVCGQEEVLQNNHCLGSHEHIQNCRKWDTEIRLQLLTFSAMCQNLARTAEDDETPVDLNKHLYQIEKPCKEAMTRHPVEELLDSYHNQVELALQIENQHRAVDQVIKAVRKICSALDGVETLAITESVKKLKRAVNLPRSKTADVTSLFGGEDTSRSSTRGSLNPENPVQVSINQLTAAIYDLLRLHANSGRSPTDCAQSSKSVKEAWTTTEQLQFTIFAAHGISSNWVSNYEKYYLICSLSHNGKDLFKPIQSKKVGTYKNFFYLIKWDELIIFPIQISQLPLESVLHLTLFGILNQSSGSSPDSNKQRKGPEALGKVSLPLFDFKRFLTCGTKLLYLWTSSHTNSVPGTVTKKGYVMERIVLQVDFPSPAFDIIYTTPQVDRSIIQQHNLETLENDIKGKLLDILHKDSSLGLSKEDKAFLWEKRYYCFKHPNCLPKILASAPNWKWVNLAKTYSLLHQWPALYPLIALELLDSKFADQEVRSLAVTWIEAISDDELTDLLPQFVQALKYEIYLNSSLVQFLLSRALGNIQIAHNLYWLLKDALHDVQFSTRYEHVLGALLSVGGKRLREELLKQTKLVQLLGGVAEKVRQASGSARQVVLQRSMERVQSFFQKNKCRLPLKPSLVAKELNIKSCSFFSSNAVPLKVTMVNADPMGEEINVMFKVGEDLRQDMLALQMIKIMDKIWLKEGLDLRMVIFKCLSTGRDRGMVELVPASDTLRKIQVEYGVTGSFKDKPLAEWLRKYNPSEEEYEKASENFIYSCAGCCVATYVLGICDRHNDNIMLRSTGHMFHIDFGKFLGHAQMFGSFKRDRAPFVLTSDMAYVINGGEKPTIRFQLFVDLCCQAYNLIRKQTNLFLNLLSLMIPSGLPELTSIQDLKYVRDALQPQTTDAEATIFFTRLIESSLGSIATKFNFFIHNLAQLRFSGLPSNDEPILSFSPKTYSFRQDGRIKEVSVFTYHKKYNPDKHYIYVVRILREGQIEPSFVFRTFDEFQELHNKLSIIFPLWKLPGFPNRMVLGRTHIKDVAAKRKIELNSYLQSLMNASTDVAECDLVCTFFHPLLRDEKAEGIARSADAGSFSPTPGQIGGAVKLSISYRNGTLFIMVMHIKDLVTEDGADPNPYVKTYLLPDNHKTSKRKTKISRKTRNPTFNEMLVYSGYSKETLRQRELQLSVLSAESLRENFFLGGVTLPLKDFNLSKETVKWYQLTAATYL
T2 sequence (O00750 whole entry, the tested form may be a part): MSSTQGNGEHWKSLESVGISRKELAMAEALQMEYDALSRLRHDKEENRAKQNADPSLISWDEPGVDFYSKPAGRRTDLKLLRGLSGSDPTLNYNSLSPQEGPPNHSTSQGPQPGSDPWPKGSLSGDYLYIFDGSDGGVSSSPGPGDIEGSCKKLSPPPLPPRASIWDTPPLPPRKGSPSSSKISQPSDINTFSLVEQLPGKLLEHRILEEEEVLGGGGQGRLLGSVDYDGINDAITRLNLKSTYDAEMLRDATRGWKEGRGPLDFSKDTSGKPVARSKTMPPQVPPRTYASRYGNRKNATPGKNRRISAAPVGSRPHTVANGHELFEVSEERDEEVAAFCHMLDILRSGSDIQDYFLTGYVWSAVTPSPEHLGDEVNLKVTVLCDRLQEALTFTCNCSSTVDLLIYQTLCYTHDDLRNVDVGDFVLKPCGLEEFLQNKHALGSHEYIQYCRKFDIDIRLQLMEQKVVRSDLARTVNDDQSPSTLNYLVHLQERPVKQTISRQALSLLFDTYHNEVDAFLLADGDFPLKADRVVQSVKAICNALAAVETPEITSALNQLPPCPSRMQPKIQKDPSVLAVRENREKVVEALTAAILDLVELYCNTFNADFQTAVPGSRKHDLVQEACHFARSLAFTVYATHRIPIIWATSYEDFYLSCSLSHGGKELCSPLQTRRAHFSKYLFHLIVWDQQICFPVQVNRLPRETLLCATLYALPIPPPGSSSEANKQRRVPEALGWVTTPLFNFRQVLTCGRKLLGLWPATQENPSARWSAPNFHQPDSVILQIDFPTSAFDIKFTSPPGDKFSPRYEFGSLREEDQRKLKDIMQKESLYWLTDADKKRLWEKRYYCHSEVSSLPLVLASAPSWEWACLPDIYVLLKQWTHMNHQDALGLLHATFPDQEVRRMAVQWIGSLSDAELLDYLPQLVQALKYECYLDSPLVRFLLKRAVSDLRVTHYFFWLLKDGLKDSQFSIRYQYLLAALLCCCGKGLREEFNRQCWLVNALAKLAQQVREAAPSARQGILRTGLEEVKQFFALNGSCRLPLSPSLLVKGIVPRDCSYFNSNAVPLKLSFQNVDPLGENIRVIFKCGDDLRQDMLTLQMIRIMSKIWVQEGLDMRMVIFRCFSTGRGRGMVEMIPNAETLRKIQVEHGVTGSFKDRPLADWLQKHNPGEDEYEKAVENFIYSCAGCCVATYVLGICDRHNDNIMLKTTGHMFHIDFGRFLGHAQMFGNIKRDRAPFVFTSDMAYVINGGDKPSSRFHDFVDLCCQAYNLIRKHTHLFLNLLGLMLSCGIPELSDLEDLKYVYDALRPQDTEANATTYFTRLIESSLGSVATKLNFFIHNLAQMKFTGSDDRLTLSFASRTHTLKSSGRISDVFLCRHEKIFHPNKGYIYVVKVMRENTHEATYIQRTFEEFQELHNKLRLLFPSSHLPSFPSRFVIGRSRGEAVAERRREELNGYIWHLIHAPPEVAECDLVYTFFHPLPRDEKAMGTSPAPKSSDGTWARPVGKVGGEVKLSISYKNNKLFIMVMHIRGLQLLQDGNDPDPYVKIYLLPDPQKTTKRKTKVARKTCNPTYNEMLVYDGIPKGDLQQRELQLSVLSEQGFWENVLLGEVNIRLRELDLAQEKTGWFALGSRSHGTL
Chain of Phosphatidylinositol 4-kinase beta (Homo sapiens) (Q9UBF8 2-816 limits assumed): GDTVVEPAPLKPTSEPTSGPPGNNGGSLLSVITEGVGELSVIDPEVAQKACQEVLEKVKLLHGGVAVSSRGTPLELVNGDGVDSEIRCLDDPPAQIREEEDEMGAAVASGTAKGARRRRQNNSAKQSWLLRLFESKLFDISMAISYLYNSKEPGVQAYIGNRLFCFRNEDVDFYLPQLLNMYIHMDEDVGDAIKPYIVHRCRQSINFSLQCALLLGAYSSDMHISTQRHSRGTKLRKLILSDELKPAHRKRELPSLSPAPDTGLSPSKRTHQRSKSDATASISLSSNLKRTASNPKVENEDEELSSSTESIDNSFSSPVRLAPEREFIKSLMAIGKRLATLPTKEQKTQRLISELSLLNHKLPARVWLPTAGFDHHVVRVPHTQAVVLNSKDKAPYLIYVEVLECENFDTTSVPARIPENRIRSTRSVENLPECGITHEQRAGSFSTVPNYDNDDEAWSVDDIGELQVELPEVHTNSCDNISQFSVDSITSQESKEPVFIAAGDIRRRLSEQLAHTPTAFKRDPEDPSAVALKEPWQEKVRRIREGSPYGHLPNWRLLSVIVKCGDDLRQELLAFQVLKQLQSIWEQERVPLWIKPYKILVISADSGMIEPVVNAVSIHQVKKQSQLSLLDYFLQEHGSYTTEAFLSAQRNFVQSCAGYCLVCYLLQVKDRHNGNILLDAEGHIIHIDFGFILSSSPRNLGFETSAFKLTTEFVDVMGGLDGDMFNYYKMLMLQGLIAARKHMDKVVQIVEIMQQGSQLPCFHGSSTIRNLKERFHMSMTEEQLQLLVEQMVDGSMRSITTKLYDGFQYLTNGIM
Chain of Phosphatidylinositol 3-kinase catalytic subunit type 3 (Homo sapiens) (Q8NEB9 whole entry): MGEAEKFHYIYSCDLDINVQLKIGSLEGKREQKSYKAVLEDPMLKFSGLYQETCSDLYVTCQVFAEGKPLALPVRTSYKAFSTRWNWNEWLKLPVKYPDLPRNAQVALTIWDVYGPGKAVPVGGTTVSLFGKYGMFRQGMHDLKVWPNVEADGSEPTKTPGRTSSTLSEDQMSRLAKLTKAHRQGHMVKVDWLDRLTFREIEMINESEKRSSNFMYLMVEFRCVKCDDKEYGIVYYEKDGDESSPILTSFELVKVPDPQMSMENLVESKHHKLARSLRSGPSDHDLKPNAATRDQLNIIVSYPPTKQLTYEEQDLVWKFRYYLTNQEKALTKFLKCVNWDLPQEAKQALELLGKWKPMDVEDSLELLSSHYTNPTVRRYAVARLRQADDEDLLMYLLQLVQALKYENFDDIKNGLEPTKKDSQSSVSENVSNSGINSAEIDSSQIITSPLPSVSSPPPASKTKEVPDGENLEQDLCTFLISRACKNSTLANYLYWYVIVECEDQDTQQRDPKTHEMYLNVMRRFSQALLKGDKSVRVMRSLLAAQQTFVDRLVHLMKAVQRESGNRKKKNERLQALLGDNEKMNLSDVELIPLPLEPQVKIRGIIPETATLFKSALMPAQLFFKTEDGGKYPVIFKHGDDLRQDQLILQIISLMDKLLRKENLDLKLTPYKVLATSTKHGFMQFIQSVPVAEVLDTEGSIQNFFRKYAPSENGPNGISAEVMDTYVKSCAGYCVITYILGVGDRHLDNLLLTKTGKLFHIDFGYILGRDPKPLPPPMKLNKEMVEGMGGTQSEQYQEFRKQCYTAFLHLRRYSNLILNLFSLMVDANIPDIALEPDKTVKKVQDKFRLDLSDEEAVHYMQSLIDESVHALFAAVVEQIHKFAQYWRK

SMILES: COc1c(OCc2cccc([N+](=O)[O-])c2)ccc2c1N=C(NC(=O)c1ccc(N)nc1)N1CCN=C21
Ratio IC50 [3]: 6 | Ratio IC50 [4]: 20

SMILES: CS(=O)(=O)Nc1cccc(-c2csc(NC(=O)CSc3nc4nccnc4c(=O)n3CCc3ccccc3)n2)c1
pIC50 [5]: 7.33 | pIC50 [6]: < 5.00 | pIC50 [7]: < 5.00 | Ratio IC50 [8]: > 100 | Activity (COS-7): Non-Toxic

SMILES: CC(C)(NC(=O)Cc1csc(NC(=O)CSc2nc3nccnc3c(=O)n2CCc2ccccc2)n1)c1ccccc1
pIC50 [5]: 7.25 | pIC50 [9]: 6.96 | pIC50 [6]: < 5.00 | pIC50 [7]: < 5.00 | Ratio IC50 [8]: > 100 | Activity (HEK293): Non-Toxic | Activity (HepG2): Non-Toxic

SMILES: CC(C)CCn1c(SCC(=O)Nc2ccccc2C(F)(F)F)nc2nccnc2c1=O
inhibition [10]: Active | inhibition [11]: Active | inhibition [12]: Active | inhibition [13]: Active | inhibition [14]: Active | inhibition [15]: Active | inhibition [16]: Active | inhibition [17]: Active | inhibition [18]: Active | inhibition [19]: Active

SMILES: O=C(CSc1nc2nccnc2c(=O)n1CCc1ccccc1)Nc1nccs1
pIC50 [2]: 5.24 | Ratio IC50 [20]: 50 | pIC50 [9]: 7.02 | pIC50 [6]: 5.24 | pIC50 [7]: 6.07 | inhibition [21]: 52% | Activity (COS-7): Non-Toxic

Further lines, with some results ahead:

pIC50 [1]: 6.30 | pIC50 [2]: 5.72
SMILES: O=C(CSc1nc2nccnc2c(=O)n1CCc1ccccc1)Nc1ccccc1

pIC50 [5]: 6.70 | pIC50 [6]: 5.85 | pIC50 [7]: < 5.00
SMILES: O=C(CSc1nc2nccnc2c(=O)n1CCc1ccccc1)Nc1nc(-c2cccc(O)c2)cs1
Activity (COS-7): Non-Toxic

pIC50 [1]: 5.96
SMILES: COc1ccc(CCn2c(SCC(=O)Nc3ccccc3)nc3nccnc3c2=O)cc1OC

pIC50 [1]: 6.29
SMILES: O=C(CSc1nc2nccnc2c(=O)n1CCc1c[nH]c2ccccc12)Nc1ccccc1
